Laboratory results taken from US7276536B2, “Method for increasing the bioavailability of the active form of S-[2-([[1-(2-ethylbutyl)cyclohexyl]carbonyl]amino) phenyl] 2-methylpropanethioate” (Japan Tobacco Inc., priority 2003, dated 2007).

Columns and labels:
[1] = Food-effect pharmacokinetic study, 600 mg oral Compound I, fed vs fasted (Example 4); assay type: in vivo, human (Japanese male volunteers)
Protocol: Administration, dosing, and sampling schedules were commensurate with those described in Example 1. […] Patients were administered two tablets of 300 mg each. The tablets were prepared as described in Example 1.

[2] = biological target: T1, cholesteryl ester transfer protein (CETP) (Homo sapiens, UniProt P11597); experiment: CETP activity change from baseline after 900 mg oral Compound I, fed vs fasted (Example 2); assay type: in vivo, human (Caucasian male patients); conditions: mean
T1 construct: from tissue; host or cells: samples from dosed male patients (CETP is described as a plasma protein)
T1 sequence (P11597 18-493): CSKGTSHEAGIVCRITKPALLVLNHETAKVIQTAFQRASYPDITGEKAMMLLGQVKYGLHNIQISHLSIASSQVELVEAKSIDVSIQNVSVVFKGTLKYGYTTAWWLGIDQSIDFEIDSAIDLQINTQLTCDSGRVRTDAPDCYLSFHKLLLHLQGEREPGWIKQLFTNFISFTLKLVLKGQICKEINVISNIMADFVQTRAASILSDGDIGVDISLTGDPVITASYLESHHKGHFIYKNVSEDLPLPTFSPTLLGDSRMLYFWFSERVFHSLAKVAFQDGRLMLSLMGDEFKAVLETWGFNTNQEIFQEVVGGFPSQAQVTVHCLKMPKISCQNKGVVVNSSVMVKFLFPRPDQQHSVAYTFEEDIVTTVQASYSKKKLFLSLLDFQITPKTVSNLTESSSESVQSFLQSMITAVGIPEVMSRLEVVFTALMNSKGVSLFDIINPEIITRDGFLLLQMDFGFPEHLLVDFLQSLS
Protocol: Administration, dosing, and sampling schedules were substantially similar to those described in Example 1.
The procedure for determining CETP activity was substantially similar to the procedures described in Tollefson et al., Methods Enzymol., 129, 797-816 (1986), and Kato et al., J. Biol. Chem., 264, 4082-4087 (1989).
CETP activity and changes from baseline (pre-dose) were measured, and the resulting data is summarized in Table 2 as percentage change from baseline. The mean changes from baseline (pre-dose) in CETP activity over time are set out in the plot of FIG. 3.

**Q.** For `CCC(CC)CC1(C(=O)Nc2ccccc2SC(=O)C(C)C)CCCCC1` [Compound I, S-[2-([[1-(2-ethylbutyl)cyclohexyl]carbonyl]amino)phenyl]2-methylpropanethioate], which “AUC0-∞ times higher with food as compared to without food” value [1] is on record?
**A.** The value was ~2 times.

**Q.** And the “Percent change from pre-dose in CETP activity” value (“Percent change from pre-dose” for short) ([2]; Fasted, 1 h)?
**A.** Its value is 1%.

**Q.** And the “Percent change from pre-dose” value ([2]; Fasted, 2 h)?
**A.** The value was 2%.

**Q.** What about the “Percent change from pre-dose” value ([2]; Fasted, 4 h) of the same compound?
**A.** The value was −4%.

**Q.** And the “Percent change from pre-dose” value ([2]; Fasted, 6 h)?
**A.** The value was −10%.

**Q.** And the “Percent change from pre-dose” value ([2]; Fasted, 8 h)?
**A.** The value was −15%.

**Q.** What about the “Percent change from pre-dose” value ([2]; Fasted, 24 h) of the same compound?
**A.** The value was −10%.

**Q.** What about the “Percent change from pre-dose” value ([2]; Fed, 1 h) of the same compound?
**A.** Its value is −1%.

**Q.** And the “Percent change from pre-dose” value ([2]; Fed, 2 h)?
**A.** Its value is −16%.

**Q.** What about the “Percent change from pre-dose” value ([2]; Fed, 4 h) of the same compound?
**A.** Its value is −44%.

**Q.** And the “Percent change from pre-dose” value ([2]; Fed, 6 h)?
**A.** The value was −59%.

**Q.** And the “Percent change from pre-dose” value ([2]; Fed, 8 h)?
**A.** Its value is −58%.

**Q.** What about the “Percent change from pre-dose” value ([2]; Fed, 24 h) of the same compound?
**A.** Its value is −34%.
